Measurements as given in article PMC4765732 (Journal of medicinal chemistry, 2015).

Columns and labels:
[1] = tested on: HIV-1DRV^RP51; type: cell-based; settings: against HIV-1DRV^RP51
[2] = tested on: HIV-1LAI; assay: Antiviral assay in MT-2 human T-lymphocytes exposed to HIV-1LAI; type: cell-based

COc1ccc(S(=O)(=O)N(CC(C)C)C[C@@H](O)[C@H](Cc2ccccc2)NC(=O)O[C@H]2CO[C@H]3OC[C@H](NC(C)C)[C@H]32)cc1 [Inhibitor 25j, (3R,3aS,4R,6aR)-4-(Isopropylamino)hexahydrofuro[2,3-b]furan-3-yl ((2S,3R)-3-hydroxy-4-((N-isobutyl-4-methoxyphenyl)sulfonamido)-1-phenylbutan-2-yl)carbamate]
improvement in EC50 values over darunavir [1]: 10 fold
improvement in antiviral activity over the methyl and ethyl derivatives ([2]; antiviral IC50 versus 25f and 25i): over 60 fold

CCN[C@H]1CO[C@@H]2OC[C@H](OC(=O)N[C@@H](Cc3ccccc3)[C@H](O)CN(CC(C)C)S(=O)(=O)c3ccc(OC)cc3)[C@@H]21 [Inhibitor 25i]
improvement in EC50 values over darunavir [1]: 10 fold

COc1ccc(S(=O)(=O)N(CC(C)C)C[C@@H](O)[C@H](Cc2ccccc2)NC(=O)O[C@H]2CO[C@H]3OC[C@H](N(C)C(=O)OC(C)(C)C)[C@H]32)cc1 [Inhibitor 25e, (3R,3aS,4R,6aR)-4-((2S,3R)-3-Hydroxy-4-(N-isobutyl-4-methoxyphenylsulfonamido)-1-phenylbutan-2-ylcarbamoyloxy)hexahydrofuro[2,3-b]furan-3-yl methyl t-butyl carbamate]
loss in antiviral activity ([2]; versus Boc-derivative 25c): ~10 fold
